Data published in ChEMBL document CHEMBL5465560, “Selectivity Literature for EUbOPEN Chemogenomic Library” (2024).

What was measured:
[1] = target: Phosphatidylinositol 4-phosphate 3-kinase C2 domain-containing subunit beta (Homo sapiens) (UniProt O00750); assay: Selectivity interaction (Kinase panel (KiNativ target engagement assay in Jurkat cells)) EUB0001635a PIK3C2B; format: cell-based; settings: Selectivity number of off-targets 0.0, Selectivity number of targets 233.0, Source Knowledge https://www.sciencedirect.com/science/article/pii/S2451945619300674?via%3Dihub, at 1 µM
Chain of Phosphatidylinositol 4-phosphate 3-kinase C2 domain-containing subunit beta (Homo sapiens) (O00750 whole entry, the tested form may be a part): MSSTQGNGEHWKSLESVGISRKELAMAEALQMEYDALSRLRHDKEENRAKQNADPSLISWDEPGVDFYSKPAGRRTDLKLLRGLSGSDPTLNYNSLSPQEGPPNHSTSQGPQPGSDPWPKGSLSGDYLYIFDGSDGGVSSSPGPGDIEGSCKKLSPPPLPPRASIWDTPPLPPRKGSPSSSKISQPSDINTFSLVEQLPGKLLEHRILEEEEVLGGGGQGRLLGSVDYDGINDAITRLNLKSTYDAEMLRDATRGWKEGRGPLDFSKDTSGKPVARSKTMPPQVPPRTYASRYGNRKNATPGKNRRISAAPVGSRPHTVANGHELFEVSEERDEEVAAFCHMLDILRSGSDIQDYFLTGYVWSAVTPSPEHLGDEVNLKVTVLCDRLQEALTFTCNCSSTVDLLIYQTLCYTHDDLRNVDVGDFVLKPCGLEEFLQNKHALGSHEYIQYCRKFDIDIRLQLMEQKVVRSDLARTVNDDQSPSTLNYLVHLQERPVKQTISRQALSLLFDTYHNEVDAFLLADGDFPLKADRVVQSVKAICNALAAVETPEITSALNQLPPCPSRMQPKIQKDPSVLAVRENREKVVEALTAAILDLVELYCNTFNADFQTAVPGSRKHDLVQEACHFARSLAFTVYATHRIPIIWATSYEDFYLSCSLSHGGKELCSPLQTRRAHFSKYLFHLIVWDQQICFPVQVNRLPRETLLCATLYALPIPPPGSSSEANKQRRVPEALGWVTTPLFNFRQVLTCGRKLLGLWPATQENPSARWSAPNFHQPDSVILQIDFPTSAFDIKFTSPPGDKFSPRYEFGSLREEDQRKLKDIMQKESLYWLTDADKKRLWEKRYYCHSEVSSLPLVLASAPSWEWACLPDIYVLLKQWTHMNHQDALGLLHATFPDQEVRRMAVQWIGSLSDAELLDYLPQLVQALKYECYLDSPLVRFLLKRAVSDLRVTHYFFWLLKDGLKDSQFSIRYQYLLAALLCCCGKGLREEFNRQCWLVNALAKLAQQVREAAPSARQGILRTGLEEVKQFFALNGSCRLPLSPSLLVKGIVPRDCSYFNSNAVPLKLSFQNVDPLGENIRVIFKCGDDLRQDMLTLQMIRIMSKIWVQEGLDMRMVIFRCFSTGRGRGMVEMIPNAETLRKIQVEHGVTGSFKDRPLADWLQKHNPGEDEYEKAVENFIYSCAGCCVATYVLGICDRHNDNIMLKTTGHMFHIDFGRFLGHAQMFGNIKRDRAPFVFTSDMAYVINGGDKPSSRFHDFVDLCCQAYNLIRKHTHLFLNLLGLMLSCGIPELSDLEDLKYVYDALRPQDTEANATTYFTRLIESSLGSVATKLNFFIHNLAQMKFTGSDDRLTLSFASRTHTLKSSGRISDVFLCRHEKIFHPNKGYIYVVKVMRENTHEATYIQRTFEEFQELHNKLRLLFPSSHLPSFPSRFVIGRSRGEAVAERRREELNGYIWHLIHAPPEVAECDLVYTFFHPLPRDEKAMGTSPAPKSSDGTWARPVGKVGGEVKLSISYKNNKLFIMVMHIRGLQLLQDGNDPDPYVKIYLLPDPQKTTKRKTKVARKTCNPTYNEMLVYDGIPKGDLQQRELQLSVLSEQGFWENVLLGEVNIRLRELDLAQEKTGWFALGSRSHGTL

[2] = target: Tyrosine-protein kinase receptor Tie-1 (Homo sapiens) (UniProt P35590); assay: Selectivity interaction (KinomeScan (DiscoverX)) EUB0000045b TIE1
Chain of Tyrosine-protein kinase receptor Tie-1 (Homo sapiens) (P35590 whole entry): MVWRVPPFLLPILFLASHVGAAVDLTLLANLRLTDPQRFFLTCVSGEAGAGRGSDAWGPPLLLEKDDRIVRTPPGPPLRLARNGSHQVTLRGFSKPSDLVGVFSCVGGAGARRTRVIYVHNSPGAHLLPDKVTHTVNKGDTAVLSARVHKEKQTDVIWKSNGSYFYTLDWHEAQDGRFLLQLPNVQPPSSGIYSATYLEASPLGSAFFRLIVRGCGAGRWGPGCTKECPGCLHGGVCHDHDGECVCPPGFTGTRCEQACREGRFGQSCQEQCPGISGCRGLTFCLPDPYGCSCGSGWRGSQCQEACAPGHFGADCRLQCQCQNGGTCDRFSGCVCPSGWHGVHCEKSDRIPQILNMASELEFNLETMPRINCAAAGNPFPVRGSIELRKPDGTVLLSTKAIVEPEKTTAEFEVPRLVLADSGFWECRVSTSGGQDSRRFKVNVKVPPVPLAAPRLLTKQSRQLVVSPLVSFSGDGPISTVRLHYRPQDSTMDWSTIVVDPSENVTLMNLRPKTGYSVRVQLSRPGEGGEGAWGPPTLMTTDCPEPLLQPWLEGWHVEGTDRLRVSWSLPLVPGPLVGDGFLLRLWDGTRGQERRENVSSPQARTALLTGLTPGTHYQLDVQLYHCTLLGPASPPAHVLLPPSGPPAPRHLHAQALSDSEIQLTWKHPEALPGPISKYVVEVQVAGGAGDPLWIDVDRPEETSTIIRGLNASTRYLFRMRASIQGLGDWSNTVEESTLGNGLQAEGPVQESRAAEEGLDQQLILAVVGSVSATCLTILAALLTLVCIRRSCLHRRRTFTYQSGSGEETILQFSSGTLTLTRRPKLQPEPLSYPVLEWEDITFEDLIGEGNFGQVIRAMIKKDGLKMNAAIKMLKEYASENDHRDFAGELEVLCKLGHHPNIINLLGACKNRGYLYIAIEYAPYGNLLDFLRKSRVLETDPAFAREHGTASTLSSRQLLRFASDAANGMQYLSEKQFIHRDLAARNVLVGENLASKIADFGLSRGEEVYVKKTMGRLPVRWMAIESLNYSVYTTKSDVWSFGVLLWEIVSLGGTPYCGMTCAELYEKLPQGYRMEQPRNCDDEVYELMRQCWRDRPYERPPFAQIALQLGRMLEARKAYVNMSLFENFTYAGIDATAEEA

[3] = target: SRSF protein kinase 1 (Homo sapiens, UniProt Q96SB4); assay: Selectivity interaction (KinomeScan (DiscoverX)) EUB0000695a SRPK1; settings: at 100 nM
Chain of SRSF protein kinase 1 (Q96SB4 whole entry): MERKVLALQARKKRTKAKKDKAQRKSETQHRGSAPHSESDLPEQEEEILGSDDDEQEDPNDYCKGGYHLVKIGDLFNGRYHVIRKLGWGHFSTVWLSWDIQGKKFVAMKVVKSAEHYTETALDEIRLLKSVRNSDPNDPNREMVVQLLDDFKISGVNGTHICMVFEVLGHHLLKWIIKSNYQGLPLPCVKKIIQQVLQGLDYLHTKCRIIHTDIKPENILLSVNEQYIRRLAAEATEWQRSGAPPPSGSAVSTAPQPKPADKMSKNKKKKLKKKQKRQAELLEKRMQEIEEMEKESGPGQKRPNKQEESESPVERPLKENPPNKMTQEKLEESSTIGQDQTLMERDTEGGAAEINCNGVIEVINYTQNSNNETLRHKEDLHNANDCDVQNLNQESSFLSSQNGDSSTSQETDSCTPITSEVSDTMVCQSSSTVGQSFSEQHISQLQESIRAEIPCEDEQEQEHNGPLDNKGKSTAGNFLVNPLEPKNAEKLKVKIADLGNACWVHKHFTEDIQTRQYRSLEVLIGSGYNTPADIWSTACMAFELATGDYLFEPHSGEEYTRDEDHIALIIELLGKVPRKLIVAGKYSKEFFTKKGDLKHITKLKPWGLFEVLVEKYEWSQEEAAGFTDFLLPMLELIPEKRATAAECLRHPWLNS

[4] = target: T1, Mitogen-activated protein kinase kinase kinase 3 (Homo sapiens) (UniProt Q99759); assay: Selectivity interaction (KinomeScan (DiscoverX)) EUB0001079a MAP3K3; settings: at 1 µM
T1 sequence (whole entry): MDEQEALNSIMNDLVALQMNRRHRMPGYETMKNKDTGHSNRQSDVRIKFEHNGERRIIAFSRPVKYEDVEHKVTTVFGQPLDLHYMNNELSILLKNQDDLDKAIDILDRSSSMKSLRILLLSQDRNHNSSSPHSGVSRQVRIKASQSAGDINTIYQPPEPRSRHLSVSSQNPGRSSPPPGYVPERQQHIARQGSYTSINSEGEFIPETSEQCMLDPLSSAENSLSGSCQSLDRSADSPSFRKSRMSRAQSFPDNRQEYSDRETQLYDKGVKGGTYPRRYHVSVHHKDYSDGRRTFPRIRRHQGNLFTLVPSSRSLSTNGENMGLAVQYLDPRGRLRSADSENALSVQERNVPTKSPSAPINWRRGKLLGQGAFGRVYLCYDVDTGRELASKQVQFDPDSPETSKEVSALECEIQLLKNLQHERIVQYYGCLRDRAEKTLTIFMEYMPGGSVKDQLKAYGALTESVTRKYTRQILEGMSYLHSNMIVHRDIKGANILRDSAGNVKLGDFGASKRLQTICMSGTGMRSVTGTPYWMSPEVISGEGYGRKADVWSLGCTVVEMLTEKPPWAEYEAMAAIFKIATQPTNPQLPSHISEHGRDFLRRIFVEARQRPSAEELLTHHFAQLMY

[5] = target: T2, Serine/threonine-protein kinase 4 (Homo sapiens) (UniProt Q13043); assay: Selectivity interaction (KinomeScan (DiscoverX)) EUB0001079a STK4; settings: at 1 µM
T2 sequence (whole entry): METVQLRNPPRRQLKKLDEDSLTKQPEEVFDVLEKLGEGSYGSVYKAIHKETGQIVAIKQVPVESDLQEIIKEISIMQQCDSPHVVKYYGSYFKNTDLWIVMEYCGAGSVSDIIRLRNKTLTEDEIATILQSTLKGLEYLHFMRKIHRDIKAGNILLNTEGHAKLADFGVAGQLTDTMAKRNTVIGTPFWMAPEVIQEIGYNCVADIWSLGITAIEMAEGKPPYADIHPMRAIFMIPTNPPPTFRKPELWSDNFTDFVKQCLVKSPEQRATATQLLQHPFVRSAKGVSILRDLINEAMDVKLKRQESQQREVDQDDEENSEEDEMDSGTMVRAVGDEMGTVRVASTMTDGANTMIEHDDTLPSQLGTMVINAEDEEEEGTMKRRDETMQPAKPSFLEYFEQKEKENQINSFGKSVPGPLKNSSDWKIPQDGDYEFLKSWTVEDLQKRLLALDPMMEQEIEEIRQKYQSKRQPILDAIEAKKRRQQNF

[6] = target: Tyrosine-protein kinase CSK (Homo sapiens) (UniProt P41240); assay: Selectivity interaction (Kinase panel (Z-LYTE Assay)) EUB0001632a CSK; settings: at 10 µM
Chain of Tyrosine-protein kinase CSK (Homo sapiens) (P41240 2-450 limits assumed): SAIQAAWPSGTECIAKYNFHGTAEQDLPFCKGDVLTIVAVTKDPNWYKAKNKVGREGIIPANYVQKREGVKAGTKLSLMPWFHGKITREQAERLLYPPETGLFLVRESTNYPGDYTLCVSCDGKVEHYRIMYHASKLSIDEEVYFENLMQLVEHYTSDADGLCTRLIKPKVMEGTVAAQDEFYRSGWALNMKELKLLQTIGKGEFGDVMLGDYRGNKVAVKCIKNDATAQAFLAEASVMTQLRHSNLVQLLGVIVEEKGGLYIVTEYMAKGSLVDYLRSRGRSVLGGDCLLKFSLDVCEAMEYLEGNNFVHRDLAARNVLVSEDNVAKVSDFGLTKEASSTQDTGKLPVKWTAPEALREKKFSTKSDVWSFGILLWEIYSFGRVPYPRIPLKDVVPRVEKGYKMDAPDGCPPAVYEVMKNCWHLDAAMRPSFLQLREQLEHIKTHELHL

[7] = target: Endothelin receptor type B (Homo sapiens) (UniProt P24530); assay: Selectivity interaction (Eurofins CEREP Diversity Profile (receptors and ion channels)) EUB0000279b EDNRB; settings: at 10 µM
[8] = target: Mitogen-activated protein kinase 8 (Homo sapiens, UniProt P45983); assay: Selectivity interaction (SelectScreen profiling (Invitrogen)) EUB0000607a MAPK8; settings: at 2 µM
[9] = target: T3, Serine/threonine-protein kinase PLK4 (Homo sapiens) (UniProt O00444); assay: Selectivity interaction (Kinase panel (DSF assay)) EUB0001558a PLK4
T3 sequence (whole entry): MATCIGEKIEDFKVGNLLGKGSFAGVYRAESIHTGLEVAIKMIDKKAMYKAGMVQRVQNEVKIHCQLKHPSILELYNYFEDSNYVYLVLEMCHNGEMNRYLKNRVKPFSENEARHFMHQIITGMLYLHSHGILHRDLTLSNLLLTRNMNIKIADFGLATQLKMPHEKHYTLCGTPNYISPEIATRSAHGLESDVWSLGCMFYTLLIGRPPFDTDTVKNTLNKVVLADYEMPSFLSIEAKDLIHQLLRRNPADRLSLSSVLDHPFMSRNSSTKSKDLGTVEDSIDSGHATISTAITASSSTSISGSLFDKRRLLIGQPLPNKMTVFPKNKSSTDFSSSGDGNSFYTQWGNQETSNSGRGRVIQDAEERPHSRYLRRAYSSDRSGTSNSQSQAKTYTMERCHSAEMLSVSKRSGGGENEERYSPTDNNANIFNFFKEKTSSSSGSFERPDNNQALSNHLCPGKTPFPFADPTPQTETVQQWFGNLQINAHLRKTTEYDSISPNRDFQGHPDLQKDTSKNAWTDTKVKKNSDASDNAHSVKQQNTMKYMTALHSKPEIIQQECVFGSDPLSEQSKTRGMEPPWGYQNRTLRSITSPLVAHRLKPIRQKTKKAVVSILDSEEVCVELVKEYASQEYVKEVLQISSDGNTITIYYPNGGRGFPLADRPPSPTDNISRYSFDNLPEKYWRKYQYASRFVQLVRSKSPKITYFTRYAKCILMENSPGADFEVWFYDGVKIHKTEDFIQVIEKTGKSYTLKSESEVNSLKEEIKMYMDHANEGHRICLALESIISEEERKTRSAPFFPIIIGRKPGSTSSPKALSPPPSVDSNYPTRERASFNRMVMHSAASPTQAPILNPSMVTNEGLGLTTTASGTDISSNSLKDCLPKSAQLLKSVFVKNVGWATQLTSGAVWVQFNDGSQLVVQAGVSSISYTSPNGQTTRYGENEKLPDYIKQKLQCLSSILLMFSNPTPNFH

[10] = target: D(2) dopamine receptor (Homo sapiens, UniProt P14416); assay: Selectivity interaction (Panel of kinases, GPCRs, ion channels and transporters (enzymatic assay)) EUB0000266bCl DRD2
Chain of D(2) dopamine receptor (P14416 whole entry): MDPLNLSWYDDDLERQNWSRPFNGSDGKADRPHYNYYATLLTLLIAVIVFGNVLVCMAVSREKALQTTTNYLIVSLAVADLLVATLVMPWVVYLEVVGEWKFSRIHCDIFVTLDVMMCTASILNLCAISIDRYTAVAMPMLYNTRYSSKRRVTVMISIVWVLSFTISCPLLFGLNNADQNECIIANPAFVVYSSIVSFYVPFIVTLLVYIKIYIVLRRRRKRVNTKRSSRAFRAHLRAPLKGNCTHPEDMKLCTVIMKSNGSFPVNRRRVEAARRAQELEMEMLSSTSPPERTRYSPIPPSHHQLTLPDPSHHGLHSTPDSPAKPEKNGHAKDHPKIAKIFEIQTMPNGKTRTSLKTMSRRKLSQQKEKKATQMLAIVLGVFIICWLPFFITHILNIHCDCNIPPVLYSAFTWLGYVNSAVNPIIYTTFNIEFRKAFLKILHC

[11] = target: Mitogen-activated protein kinase 9 (Homo sapiens, UniProt P45984); assay: Selectivity interaction (Ambit KINOMEscan and KiNATiv profiling in Jurkat cells) EUB0000090b MAPK9; format: cell-based; settings: at 1 µM
Chain of Mitogen-activated protein kinase 9 (P45984 whole entry, looked up): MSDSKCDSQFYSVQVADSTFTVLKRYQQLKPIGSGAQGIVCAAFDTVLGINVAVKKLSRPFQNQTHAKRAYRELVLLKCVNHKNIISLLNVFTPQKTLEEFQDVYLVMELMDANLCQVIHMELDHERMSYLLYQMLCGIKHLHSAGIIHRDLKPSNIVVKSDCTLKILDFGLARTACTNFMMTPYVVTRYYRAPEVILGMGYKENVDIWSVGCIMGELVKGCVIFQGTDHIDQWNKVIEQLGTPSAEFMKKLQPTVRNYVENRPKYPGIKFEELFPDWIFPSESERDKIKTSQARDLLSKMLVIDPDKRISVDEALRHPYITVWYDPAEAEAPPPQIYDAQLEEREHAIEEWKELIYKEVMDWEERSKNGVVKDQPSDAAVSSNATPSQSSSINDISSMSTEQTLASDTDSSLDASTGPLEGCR

Work on `C=CC(=O)Nc1ccc(C(=O)Nc2[nH]nc3c2CN(C(=O)N[C@H](CN(C)C)c2ccccc2)C3(C)C)cc1` yielded a % of engagement [1] of -18.6%.
With `C=CC(=O)Nc1cc(-n2c(=O)ccc3cnc4ccc(-c5ccc(NS(C)(=O)=O)cc5)cc4c32)ccc1C` the % of control ([2]; at 1 µM) was 100% and the % of control ([2]; at 10 µM) was 89%.
`Cc1cc(F)c(C(=O)Nc2cccc(-c3nncn3C(C)C)n2)cc1-n1cnc(C2CC2)c1` showed a % of control [3] of 91%.
With `Nc1cnc(N2CCc3cc(S(=O)(=O)Nc4c(F)cc(Cl)cc4F)cc(N4CCCC4=O)c32)nc1` [TP-020n] the % of control [4] was 97% and the % of control [5] was 100%.
With `Cn1cc(-n2cnc3c(NCc4nc5cc(Cl)c(Cl)cc5[nH]4)nc(N4CCOCC4)nc32)cn1` the % of control [6] was 10.7%.
Work on `CC(=O)c1cc(-c2ccccc2OCC2CC2)c2ncccn12` yielded a % of control [7] of 84%.
Work on `CNC(=O)Nc1ccc(-c2nc(N3CC4CCC(C3)O4)c3cnn(C4CCC5(CC4)OCCO5)c3n2)cc1` yielded a % of inhibition [8] of 12%.
`CC(C)(O)[C@H](F)CN1Cc2cc(NC(=O)c3cnn4cccnc34)c(N3CCOCC3)cc2C1=O` gave a dTM [9] of 5.2 K.
With `CCn1c(-c2nc3cc(C(=O)N4CCCC(N)C4)ccc3n2C)cc2ccccc21` (configuration not stated) the pXC50 [10] was 4.5 M.
`CN(C)C/C=C/C(=O)Nc1ccc(C(=O)N2CCCC(Nc3ncc(Cl)c(-c4c[nH]c5ccccc45)n3)C2)cc1` (configuration not stated) showed a % of control [11] of 0.55%.
